Experimental data taken from patent US12723261B2, “Process for producing a plurality of Neddylation site modified AAV2 vectors” (INDIAN INSTITUTE OF […], priority 2018, dated 2026).

System: HeLa cells
Assay: In vitro drug assay: scAAV2-EGFP transduction after pre-treatment with Neddylation inhibitor
Type: cell-based
Conditions: versus control cells
Protocol: Approximately 3×10^4 HeLa cells were seeded in 24 well plate and incubated for 12 hours in Iscove's-modified Dulbecco's medium (IMDM) with 10% fetal bovine serum in humidified conditions and 5% CO2. Cells were either mock treated or treated with a Neddylation inhibitor, MLN4924 (Calbiochem, Merck, Kenilworth, USA) at a concentration of 1 μM and incubated at 37° C. for 3 hours. After incubation, cells were infected with scAAV2-EGFP vectors at a multiplicity of infection (MOI) of 5000 for 3 hours in IMDM at 37° C. Forty-eight hours later, the transgene (GFP) expression was quantified by flow cytometry (BDaccuri, BD Biosciences, Franklin Lakes, USA).
To determine the role of cellular Neddylation during AAV2 infection, a small molecular inhibitor of Neddylation being used herein, MLN4924. The MLN4924 prevents the formation of the NEDD8 and Neddylation activating enzyme (NAE1) protein complex. The HeLa cells were pre-treated for three hours, after which the HeLa cells were infected with scAAV2-EGFP. […] Further studies such as specific targeting of Neddylation pathway genes by RNA interference are warranted to understand the mechanism involved in this process. […] Forty-eight hours later, the transgene (GFP) expression was quantified by flow cytometry. […]

`NS(=O)(=O)OC[C@@H]1C[C@@H](n2ccc3c(N[C@H]4CCc5ccccc54)ncnc32)C[C@@H]1O` [MLN4924] was tested, and the “improvement of AAV transduction by Neddylation inhibition” value was 50%.
